This note sets out measurements from ChEMBL document CHEMBL4043150, “Discovery of novel pyrazolo[1,5-a]pyridine-based EP1 receptor antagonists by scaffold hopping: Design, synthesis, and structure-activity relationships” (Bioorg Med Chem Lett, 2017).

For data set [1], the target named is T1, Prostaglandin E2 receptor EP1 subtype (Rattus norvegicus, UniProt P70597).
T1 sequence (P70597 whole entry): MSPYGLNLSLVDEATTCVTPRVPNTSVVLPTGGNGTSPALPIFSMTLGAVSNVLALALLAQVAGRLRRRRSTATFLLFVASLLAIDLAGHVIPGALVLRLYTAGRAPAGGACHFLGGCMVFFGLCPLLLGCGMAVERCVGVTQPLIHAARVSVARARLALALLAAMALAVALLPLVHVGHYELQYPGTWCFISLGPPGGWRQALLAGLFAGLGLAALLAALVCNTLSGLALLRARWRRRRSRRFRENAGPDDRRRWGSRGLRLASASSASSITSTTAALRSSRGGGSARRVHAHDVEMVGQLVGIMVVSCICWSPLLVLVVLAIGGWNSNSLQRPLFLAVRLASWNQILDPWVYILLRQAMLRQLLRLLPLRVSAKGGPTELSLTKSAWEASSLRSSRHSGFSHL
Put plainly: Antagonist activity at rat His-tagged EP1 receptor expressed in African green monkey COS1 cells assessed as reduction in PGE2-induced increase in intracellular calcium level preincubated for 60 secs followed by PGE2 addition measured for 60 secs by Fluo 4-AM dye-based fluorescence assay. Format: functional, cell-based. On the technique in general: Calcium flux is commonly read through the fluorescence of an indicator in the cells.

The test system of the next data set is Rattus norvegicus. Put plainly: Suppression of 17-PTP-induced bladder contraction in Wistar rat assessed as change in intravesical pressure at 1 mg/kg, iv pretreated for 5 mins followed by 17-PTP administration for 9 times with 30 mins time interval up to 245 mins post dose. Format: functional, organism-based.
Data set [2] is described as follows: Total clearance in rat at 1 mg/kg, iv. The class given is ADME, organism-based. Conditions: in vivo.
The nature of data set [3]: Initial plasma concentration in rat at 1 mg/kg, iv. Format: ADME, organism-based.
Data set [4] is described as follows: Volume of distribution at steady state in rat at 1 mg/kg, iv. The note with it: in vivo, read-out: Vdss. The class given is ADME, organism-based.
A short description of data set [5]: AUC (0 to infinity) in rat at 1 mg/kg, iv. Conditions: in vivo. Also on record: dose 1 mg/kg, time infinity, route intravenous. The class given is ADME, organism-based.
A short description of data set [6]: Aqueous solubility of compound. The note with it: buffer. Format: physicochemical.
Data set [7] has as its target T2, Prostaglandin E2 receptor EP1 subtype (Rattus norvegicus) (UniProt P70597).
T2 sequence (whole entry): T1 sequence (P70597 whole entry)
Kind of data set: Antagonist activity at rat His-tagged EP1 receptor expressed in African green monkey COS1 cells assessed as reduction in PGE2-induced increase in intracellular calcium level at 10 uM preincubated for 60 secs followed by PGE2 addition measured for 60 secs by Fluo 4-AM dye-based fluorescence assay relative to control. The class given is functional, cell-based.

Activity calls are given as the source filed them. The rule behind the calls is not given here.

In general, IC50 refers to the concentration needed to halve the response being measured. Consider `CC(=O)c1ccc2c(Cc3cccc(C(=O)O)n3)c(-c3ccccc3)nn2c1`, for which the 50% inhibitory concentration (IC50) in data set [1] worked out at 1100 nM.

In the case of `COc1ccc(-c2nn3cc(Cl)ccc3c2Cc2cccc(C(=O)O)n2)cc1`, the IC50 in data set [1] amounted to 5400 nM.

Take `CC(C)Cc1nn2cc(Cl)ccc2c1Cc1cccc(C(=O)O)n1`: in data set [1], the IC50 worked out at 200 nM.

A word on the clearance: it is the rate of elimination divided by the concentration. For orientation: AUC(0-inf) means total exposure, with the tail of the curve extrapolated. As usually defined, the solubility is how much of the substance goes into solution per volume. Consider `COc1ccc2c(Cc3cccc(C(=O)O)n3)c(-c3ccccc3)nn2c1`, for which the outcome with Rattus norvegicus was Active. In data set [2], this compound displayed a clearance of 6.12 mL/min/kg. In addition, in data set [3], the C0 amounted to 2660 ng/mL. Further, in data set [4], the Vd is 0.45 L/kg. In data set [5], this compound registered an AUC(0-inf) of 2780 ng·h/mL. In data set [6], this compound showed a solubility of more than 75 µM.

Broadly, the inhibition is the drop in the measured response relative to a control, in per cent. For the compound `COc1ccccc1-c1nn2cc(Cl)ccc2c1Cc1cccc(C(=O)O)n1`, the inhibition in data set [7] was 29%.

Consider `N#Cc1ccc2c(Cc3cccc(C(=O)O)n3)c(-c3ccccc3)nn2c1`, for which, in data set [1], the IC50 turned out to be 440 nM.

For `O=C(O)c1cccc(Cc2c(-c3ccccc3)nn3cc(Cl)ccc23)n1`, in the data set on Rattus norvegicus, the outcome was Active. Moreover, the clearance in data set [2] was determined as 10.7 mL/min/kg. Moreover, the C0 in data set [3] turned out to be 2750 ng/mL. Moreover, the Vd in data set [4] amounted to 0.489 L/kg. The compound further registered an AUC(0-inf) in data set [5] of 1590 ng·h/mL.

With `O=C(O)c1cccc(Cc2c(-c3cccs3)nn3cc(Cl)ccc23)n1`, the half-inhibitory concentration (IC50) in data set [1] is 1100 nM.

Turning to `O=C(O)c1cccc(Cc2c(-c3ccccc3Cl)nn3cc(Cl)ccc23)n1`, the half-inhibitory concentration (IC50) in data set [1] was found to be 640 nM.

Turning to `O=C(O)c1cccc(Cc2c(N3CCSCC3)nn3cc(Cl)ccc23)n1`, the half-inhibitory concentration (IC50) in data set [1] was determined as 260 nM.

Consider `O=C(O)c1cccc(Cc2c(N3CCCC3)nn3cc(Cl)ccc23)n1`, for which, in data set [1], the half-maximal inhibitory concentration (IC50) is 1800 nM.

`O=C(O)c1cccc(Cc2c(C3CC3)nn3cc(Cl)ccc23)n1`: in data set [1], the IC50 was found to be 1500 nM.

`O=C(O)c1cccc(Cc2c(-c3ccccc3)nn3cc(C4CC4)ccc23)n1`: the concentration for half-maximal inhibition (IC50) in data set [1] was determined as 190 nM.

For the compound `O=C(O)c1cccc(Cc2c(-c3ccccc3)nn3cc(F)ccc23)n1`, the IC50 in data set [1] was found to be 380 nM.

For the compound `COc1cccc(-c2nn3cc(Cl)ccc3c2Cc2cccc(C(=O)O)n2)c1`, the IC50 in data set [1] was determined as 800 nM.

Turning to `O=C(O)c1cccc(Cc2c(-c3ccccc3)nn3cc(C(F)(F)F)ccc23)n1`, in the data set on Rattus norvegicus, the result was Active. Also, the clearance in data set [2] was 3.84 mL/min/kg. Besides, the IC50 in data set [1] stood at 16 nM. The C0 in data set [3] is 2430 ng/mL. In addition, in data set [4], the Vd turned out to be 0.473 L/kg. The AUC(0-inf) in data set [5] was determined as 4360 ng·h/mL.

Take `O=C(O)c1cccc(Cc2c(C3CCCCC3)nn3cc(Cl)ccc23)n1`: the IC50 in data set [1] was found to be 1200 nM.

On to `O=C(O)c1cccc(Cc2c(-c3ccoc3)nn3cc(Cl)ccc23)n1`, for which the IC50 in data set [1] was determined as 130 nM.

On to `O=C(O)c1cccc(Cc2c(-c3cccc(Cl)c3)nn3cc(Cl)ccc23)n1`, for which, in data set [1], the half-maximal inhibitory concentration (IC50) worked out at 480 nM.

Take `O=C(O)c1cccc(Cc2c(-c3ccccc3)nn3ccccc23)n1`: in data set [1], the IC50 was 2300 nM.

On to `O=C(O)c1cccc(Cc2c(-c3ccsc3)nn3cc(Cl)ccc23)n1`, for which the 50% inhibitory concentration (IC50) in data set [1] amounted to 110 nM.

Turning to `C=C(C)c1ccc2c(Cc3cccc(C(=O)O)n3)c(-c3ccccc3)nn2c1`, the half-inhibitory concentration (IC50) in data set [1] was 290 nM.

For `COc1ccn2nc(-c3ccccc3)c(Cc3cccc(C(=O)O)n3)c2c1`, the IC50 in data set [1] stood at 9100 nM.

Regarding `COc1ccc2c(Cc3cncc(C(=O)O)n3)c(-c3ccccc3)nn2c1`, the IC50 in data set [1] was 4500 nM.

With `COc1cccc2c(Cc3cccc(C(=O)O)n3)c(-c3ccccc3)nn12`, the inhibition in data set [7] came out at 33%.

On to `O=C(O)c1cccc(Cc2c(-c3ccc(Cl)cc3)nn3cc(Cl)ccc23)n1`, for which the IC50 in data set [1] is 1100 nM.

In turn, `Cc1cc(C(=O)O)nn1Cc1cc(Cl)cc2cc(-c3ccccc3)nn12` returned a solubility in data set [6] of more than 75 µM.

With `O=C(O)c1cccc(Cc2c(-c3ccco3)nn3cc(Cl)ccc23)n1`, the IC50 in data set [1] worked out at 1200 nM.

Regarding `CS(=O)(=O)c1ccc2c(Cc3cccc(C(=O)O)n3)c(-c3ccccc3)nn2c1`, the 50% inhibitory concentration (IC50) in data set [1] came to 5400 nM.

Consider `O=C(O)c1cccc(Cc2c(N3CCCCCC3)nn3cc(Cl)ccc23)n1`, for which the IC50 in data set [1] came to 1400 nM.

For the compound `O=C(O)c1cccc(Cc2c(N3CCOCC3)nn3cc(Cl)ccc23)n1`, the IC50 in data set [1] stood at 740 nM.
